# Reference: US20200399262A1, “COMPOUNDS FOR INHIBITING PROTEIN DEGRADATION AND METHODS OF USE THEREOF IN THE TREATMENT OF CANCER” (PI Therapeutics Ltd, priority 2018, published 2020)
# Assays:
# Assay type in all cases: cell-based
# [1] = tested on: SF-295; test: Cell viability panel, CyQUANT Direct; settings: Homo sapiens, CNS, 48 hours, read-out: Compound EC50
# Procedure: (§1) Cell viability panel studies. Cells were diluted in the corresponding ATCC recommended medium and dispensed in a 384-well plate, depending on the cell line used, at a density of 200-6400 cells per well. For each used cell line, the optimal cell density was used. Compound was serially diluted and 8 concentration (0.04-32 μM) were added to the cells for 72 h exposure. At t=end, of ATPlite 1Step™ (PerkinElmer) were used to calculate cell viability. Cell lines marked with asterisk were seeded 24 h prior to treatment in 96-well plates at the density range of 5,000-40,000 cells/well, according to duplication rate, in RPMI 1640 medium containing 10% fetal bovine serum and 2 mM L-glutamine. Compounds were diluted from 10 mM DMSO stock and treatment was applied at the range of 0.04-1 μM. Following incubation at 37° C. for 48 hours with increasing concentrations of the compounds, viability was determined with CyQUANT® Direct Assay Kit (Invitrogen). Output intensities were normalized to values after treatment with DMSO alone, and EC50 values were calculated using the absorbance measurements [time zero, (Tz), growth control, (C), plus the test growth at the four drug concentration levels (Ti)] as follows: [(Ti−Tz)/(C−Tz)]×100 for concentrations for which Ti>/=Tz; [(Ti−Tz)/Tz]×100 for concentrations for which Ti−<Tz.
# [2] = tested on: NCI-H522; test: Cell viability panel, CyQUANT Direct; settings: Homo sapiens, Lung Cancer, 48 hours, read-out: Compound EC50
# Procedure: as §1
# [3] = tested on: HT-29; test: Cell viability panel, CyQUANT Direct; settings: Homo sapiens, Colon cancer, 48 hours, read-out: Compound EC50
# Procedure: as §1
# [4] = tested on: HOP-62; test: Cell viability panel, CyQUANT Direct; settings: Homo sapiens, Lung cancer, 48 hours, read-out: Compound EC50
# Procedure: as §1
# [5] = tested on: MALME-3M; test: Cell viability panel, CyQUANT Direct; settings: Homo sapiens, Melanoma, 48 hours, read-out: Compound EC50
# Procedure: as §1
# [6] = tested on: OVCAR-8; test: Cell viability panel, CyQUANT Direct; settings: Homo sapiens, Ovarian Cancer, 48 hours, read-out: Compound EC50
# Procedure: as §1
# [7] = tested on: NCI-H322M; test: Cell viability panel, CyQUANT Direct; settings: Homo sapiens, Lung cancer, 48 hours, read-out: Compound EC50
# Procedure: as §1
# [8] = tested on: SF-539; test: Cell viability panel, CyQUANT Direct; settings: Homo sapiens, CNS, 48 hours, read-out: Compound EC50
# Procedure: as §1
# [9] = tested on: UACC-62; test: Cell viability panel, CyQUANT Direct; settings: Homo sapiens, Melanoma, 48 hours, read-out: Compound EC50
# Procedure: as §1
# [10] = tested on: MDA-MB-468; test: Cell viability panel, CyQUANT Direct; settings: Homo sapiens, Breast cancer, 48 hours, read-out: Compound EC50
# Procedure: as §1
# [11] = tested on: SF-268; test: Cell viability panel, CyQUANT Direct; settings: Homo sapiens, CNS, 48 hours, read-out: Compound EC50
# Procedure: as §1
# [12] = tested on: NCI-H322M; test: NCI60 screen cytotoxicity; settings: Homo sapiens, Lung cancer, read-out: Compound B1 EC50
# [13] = tested on: SF-539; test: NCI60 screen cytotoxicity; settings: Homo sapiens, CNS, read-out: Compound B1 EC50
# [14] = tested on: HOP-92; test: NCI60 screen cytotoxicity; settings: Homo sapiens, Lung cancer, read-out: Compound B1 EC50
# [15] = tested on: K-562; test: NCI60 screen cytotoxicity; settings: Homo sapiens, K562, Leukemia, read-out: Compound B1 EC50
# [16] = tested on: NCI-H23; test: NCI60 screen cytotoxicity; settings: Homo sapiens, Lung cancer, read-out: Compound B1 EC50
# [17] = tested on: U251; test: NCI60 screen cytotoxicity; settings: Homo sapiens, U-251, CNS, read-out: Compound B1 EC50
# [18] = tested on: UO-31; test: NCI60 screen cytotoxicity; settings: Homo sapiens, Renal cancer, read-out: Compound B1 EC50
# [19] = tested on: UACC-62; test: NCI60 screen cytotoxicity; settings: Homo sapiens, Melanoma, read-out: Compound B1 EC50
# [20] = tested on: PC-3; test: NCI60 screen cytotoxicity; settings: Homo sapiens, Prostate cancer, read-out: Compound B1 EC50
# [21] = tested on: SF-268; test: NCI60 screen cytotoxicity; settings: Homo sapiens, CNS, read-out: Compound B1 EC50
# [22] = tested on: SK-MEL-2; test: NCI60 screen cytotoxicity; settings: Homo sapiens, Melanoma, read-out: Compound B1 EC50
# [23] = tested on: TK-10; test: NCI60 screen cytotoxicity; settings: Homo sapiens, Renal cancer, read-out: Compound B1 EC50
# [24] = tested on: 786-0; test: NCI60 screen cytotoxicity; settings: Homo sapiens, Renal cancer, read-out: Compound B1 EC50
# [25] = tested on: LOX IMVI; test: NCI60 screen cytotoxicity; settings: Homo sapiens, Melanoma, read-out: Compound B1 EC50
# [26] = tested on: COLO-205; test: NCI60 screen cytotoxicity; settings: Homo sapiens, Colon cancer, read-out: Compound B1 EC50
# [27] = tested on: MDA-MB-468; test: NCI60 screen cytotoxicity; settings: Homo sapiens, Breast cancer, read-out: Compound B1 EC50
# [28] = tested on: MALME-3M; test: NCI60 screen cytotoxicity; settings: Homo sapiens, Melanoma, read-out: Compound B1 EC50
# [29] = tested on: OVCAR-8; test: NCI60 screen cytotoxicity; settings: Homo sapiens, Ovarian cancer, read-out: Compound B1 EC50
# [30] = tested on: ACHN; test: NCI60 screen cytotoxicity; settings: Homo sapiens, Renal cancer, read-out: Compound B1 EC50
# [31] = tested on: MM1.S; test: Cell viability, ATPlite 1-step, MM cell lines; settings: Homo sapiens; MM1.S MM cell line; 48 hours; read-out: Compound EC50
# Procedure: Cell Viability. The assay was performed only when cell viability was ≥90%. Cells were seeded in 96-well white clear bottom plates at concentration of 100,000 cells/mL and treated with serially diluted compounds or vehicle (DMSO) control in triplicates for 48 hours (h). Cell viability was determined using the ATPlite 1-step assay system (PerkinElmer). The method was based on the production of light caused by the reaction of ATP, which was a marker for cell viability. […] were added to the plates which were read in a plate reader for luminescence. The emitted light is proportional to the ATP concentration. Viability was calculated as the percent of viable cells from control vehicle-treated cells. EC50 was calculated using Prism software.
# Potency of compounds were assessed by viability assay.
compound,measurement,setting,value
CN(C)CCCS(=O)(=O)N1C/C(=C\c2ccc(C#N)cc2)C(=O)/C(=C/c2ccc(C#N)cc2)C1 [Compound AA],EC50,[1],< 300 nM
same,EC50,[2],< 300 nM
same,EC50,[3],300 to 1000 nM
same,EC50,[4],300 to 1000 nM
same,EC50,[5],< 300 nM
same,EC50,[6],< 300 nM
same,EC50,[7],300 to 1000 nM
same,EC50,[8],< 300 nM
same,EC50,[9],< 300 nM
same,EC50,[10],< 300 nM
same,EC50,[11],< 300 nM
CN(C)CC(=O)NCC(=O)N1C/C(=C\c2ccc(C#N)cc2)C(=O)/C(=C/c2ccc(C#N)cc2)C1 [Compound B1],EC50,[12],300 to 1000 nM
same,EC50,[13],300 to 1000 nM
same,EC50,[14],300 to 1000 nM
same,EC50,[15],< 300 nM
same,EC50,[16],< 300 nM
same,EC50,[17],< 300 nM
same,EC50,[18],300 to 1000 nM
same,EC50,[19],300 to 1000 nM
same,EC50,[20],< 300 nM
same,EC50,[21],< 300 nM
same,EC50,[22],< 300 nM
same,EC50,[23],300 to 1000 nM
same,EC50,[24],300 to 1000 nM
same,EC50,[25],< 300 nM
same,EC50,[26],300 to 1000 nM
same,EC50,[27],< 300 nM
same,EC50,[28],< 300 nM
same,EC50,[29],< 300 nM
same,EC50,[30],< 300 nM
same,EC50,[31],< 300 nM
